Laboratory results published in PMC11040352, “CD38‐Specific Gallium‐68 Labeled Peptide Radiotracer Enables Pharmacodynamic Monitoring in Multiple Myeloma with PET” (Advanced Science, 2024).
Like-named read-outs stand apart in the source and are kept apart here.

Assay: Ex vivo biodistribution in mice with MM1S tumor xenografts
Details: NSG, mouse; for tissue uptake at 0.5 h: 30 min p.i.; for tissue uptake at 1 h / tissue to tissue ratio at 1 h: 60 min p.i.; for tissue uptake at 1.5 h: 90 min p.i.; for tissue uptake at 2 h: 120 min p.i.; for tissue uptake at 5 min: 5 min p.i.
Method: Animal studies were performed under Johns Hopkins University Animal Care and Use Committee (ACUC‐approved protocol (Principal investigator: Sridhar Nimmagadda, Ph.D. and Protocol number M021M175). Male and female NSG mice (5‐6 weeks old) were used to establish xenografts by administering 3 million cells (50% Corning Matrigel) subcutaneously to form various tumor models within 3–4 weeks. Imaging or biodistribution studies (n = 3–5) were conducted on mice with tumor volumes of 100–200 mm^3. Disseminated tumor models were developed by injecting 4–5 million cells in saline intravenously for MOLP8 and MM1S‐Luc models (n = 4–5). Luciferase expressing MM1S cell line (MM1S‐Luc) was used to monitor cancer cell dissemination in the body. Tumor establishment was confirmed by injecting D‐Luciferin intraperitoneally (150 mg kg^−1) and imaged mice after 10 min in IVIS bioluminescence imaging system. Bone marrow tumors were ready for imaging after 25–30 d of implantation.
Mice with 100–200 mm^3 tumor volume were used for ex vivo biodistribution studies. For radiotracer pharmacokinetics studies, mice with MOLP8 tumor xenografts received ≈80 µCi (2.96 MBq) [^68Ga]Ga‐AJ206 and were sacrificed at pre‐determined time points (5, 30, 60 and 120 min). Similarly, for dosimetry study, mice with MM1S tumor xenografts received ≈80 µCi (2.96 MBq) of [^68Ga]Ga‐AJ206 and were sacrificed at pre‐determined time points (5, 30, 60, 90 and 120 min). All other mice were injected with ≈50µCi (1.85 MBq) [^68Ga]Ga‐AJ206 and were sacrificed at 60 min. The selected tissues were collected, weighed, counted, and their %ID g^−1 values calculated for biodistribution analysis. The tissues included blood, muscle, tumor, thymus, heart, lung, liver, pancreas, stomach, small intestine, large intestine, spleen, adrenals, kidney, bladder, femur, and brain.

[1] = both sexes, liver, 80 µCi, total radioactivity, MM1S xenograft mice, read-out: uptake in liver
[2] = both sexes, lung, 80 µCi, total radioactivity, MM1S xenograft mice, read-out: uptake in lung
[3] = both sexes, muscle, 80 µCi, MM1S xenograft mice, read-out: uptake in muscle
[4] = both sexes, pancreas, 80 µCi, total radioactivity, MM1S xenograft mice, read-out: uptake in pancreas
[5] = both sexes, small intestine (with contents), 80 µCi, MM1S xenograft mice, read-out: uptake in small intestine (with contents)
[6] = both sexes, spleen, 80 µCi, total radioactivity, MM1S xenograft mice, read-out: uptake in spleen
[7] = both sexes, stomach (with contents), 80 µCi, MM1S xenograft mice, read-out: uptake in stomach (with contents)
[8] = both sexes, thymus, 80 µCi, total radioactivity, MM1S xenograft mice, read-out: uptake in thymus
[9] = both sexes, tumor, 80 µCi, total radioactivity, MM1S xenograft mice, read-out: uptake in tumor
[10] = female, ovary, 80 µCi, MM1S xenograft mice, read-out: uptake in ovary

For `CC[C@H](C)[C@@H]1NC(=O)[C@@H]2CCCN2C(=O)[C@H](Cc2ccccc2)NC(=O)[C@H](CC(=O)O)NC(=O)[C@H](C)NC(=O)[C@@H]2CSCc3cc(cc(c3)CSC[C@H](NC(=O)[C@H](C)NC(=O)CCOCCOCCOCCNC(=O)CN3CCN(CC(=O)O)CCN(CC(=O)O)CC3)C(=O)N[C@@H](C(C)C)C(=O)N3CCC[C@H]3C(=O)N2)CSC[C@@H](C(N)=O)NC(=O)[C@H](Cc2ccc(O)cc2)NC(=O)[C@H](Cc2c[nH]c3ccccc23)NC1=O` [[^68Ga]Ga‐AJ206, metal not drawn], the tissue uptake at 0.5 h [1] was 3.64 ± 0.31 %ID/g, the tissue uptake at 1 h [1] was 1.38 ± 0.04 %ID/g and the tissue uptake at 1.5 h [1] was 1.16 ± 0.08 %ID/g. For the same compound, the tissue uptake at 2 h [1] was 0.73 ± 0.1 %ID/g, the tissue uptake at 1 h (both sexes, lung, 2 mg/kg, MM1S xenograft mice with blocking dose (2 mg kg^−1 AJ206), read-out: uptake in lung) was 0.94 ± 0.09 %ID/g and the tissue uptake at 5 min [2] was 10.2 ± 4.52 %ID/g. It also gave a tissue uptake at 0.5 h [2] of 3.43 ± 0.5 %ID/g, a tissue uptake at 1 h [2] of 0.67 ± 0.07 %ID/g and a tissue uptake at 1.5 h [2] of 0.95 ± 0.18 %ID/g. For the same compound, the tissue uptake at 2 h [2] was 0.4 ± 0.04 %ID/g, the tissue uptake at 1 h (both sexes, muscle, 2 mg/kg, MM1S xenograft mice with blocking dose (2 mg kg^−1 AJ206), read-out: uptake in muscle) was 0.21 ± 0.07 %ID/g and the tissue uptake at 5 min [3] was 1.96 ± 0.28 %ID/g. It also gave a tissue uptake at 0.5 h [3] of 0.55 ± 0.09 %ID/g, a tissue uptake at 1 h [3] of 0.13 ± 0.02 %ID/g and a tissue uptake at 1.5 h [3] of 0.18 ± 0.04 %ID/g. It also gave a tissue uptake at 2 h (both sexes, muscle, 80 µCi, total radioactivity, MM1S xenograft mice, read-out: uptake in muscle) of 0.09 ± 0.02 %ID/g, a tissue uptake at 1 h (both sexes, pancreas, 2 mg/kg, MM1S xenograft mice with blocking dose (2 mg kg^−1 AJ206), read-out: uptake in pancreas) of 0.64 ± 0.39 %ID/g and a tissue uptake at 5 min [4] of 3.55 ± 0.34 %ID/g. The tissue uptake at 0.5 h [4] was 0.79 ± 0.14 %ID/g, the tissue uptake at 1 h [4] was 0.19 ± 0.03 %ID/g and the tissue uptake at 1.5 h [4] was 0.26 ± 0.06 %ID/g. It also gave a tissue uptake at 2 h [4] of 0.17 ± 0.05 %ID/g, a tissue uptake at 5 min [5] of 5 ± 0.7 %ID/g and a tissue uptake at 0.5 h [5] of 0.95 ± 0.1 %ID/g. It also gave a tissue uptake at 1 h [5] of 0.2 ± 0.1 %ID/g, a tissue uptake at 1.5 h [5] of 0.41 ± 0.08 %ID/g and a tissue uptake at 2 h [5] of 0.52 ± 0.21 %ID/g. The tissue uptake at 1 h (both sexes, small intestine, 2 mg/kg, MM1S xenograft mice with blocking dose (2 mg kg^−1 AJ206), read-out: uptake in small intestine) was 0.87 ± 0.5 %ID/g, the tissue uptake at 1 h (both sexes, spleen, 2 mg/kg, MM1S xenograft mice with blocking dose (2 mg kg^−1 AJ206), read-out: uptake in spleen) was 0.9 ± 0.45 %ID/g and the tissue uptake at 5 min [6] was 6.41 ± 1.3 %ID/g. It also gave a tissue uptake at 0.5 h [6] of 1.21 ± 0.15 %ID/g, a tissue uptake at 1 h [6] of 0.41 ± 0.05 %ID/g and a tissue uptake at 1.5 h [6] of 0.43 ± 0.07 %ID/g. It also gave a tissue uptake at 2 h [6] of 0.28 ± 0.05 %ID/g, a tissue uptake at 5 min [7] of 1.65 ± 0.19 %ID/g and a tissue uptake at 0.5 h [7] of 0.54 ± 0.19 %ID/g. For the same compound, the tissue uptake at 1 h [7] was 0.32 ± 0.21 %ID/g, the tissue uptake at 1.5 h [7] was 0.82 ± 0.36 %ID/g and the tissue uptake at 2 h [7] was 0.47 ± 0.3 %ID/g. For the same compound, the tissue uptake at 1 h (both sexes, stomach, 2 mg/kg, MM1S xenograft mice with blocking dose (2 mg kg^−1 AJ206), read-out: uptake in stomach) was 1.01 ± 0.56 %ID/g, the tissue uptake at 5 min [8] was 16.5 ± 5.34 %ID/g and the tissue uptake at 0.5 h [8] was 2.67 ± 0.83 %ID/g. It also gave a tissue uptake at 1 h [8] of 0.69 ± 0.19 %ID/g, a tissue uptake at 1.5 h [8] of 0.84 ± 0.18 %ID/g and a tissue uptake at 2 h [8] of 0.33 ± 0.1 %ID/g. For the same compound, the tissue uptake at 1 h (both sexes, tumor, 2 mg/kg, MM1S xenograft mice with blocking dose (2 mg kg^−1 AJ206), read-out: uptake in tumor) was 1.37 ± 0.22 %ID/g, the tissue uptake at 5 min [9] was 3.09 ± 0.16 %ID/g and the tissue uptake at 0.5 h [9] was 4.15 ± 0.53 %ID/g. The tissue uptake at 1.5 h [9] was 1.6 ± 0.46 %ID/g, the tissue uptake at 2 h [9] was 1.3 ± 0.4 %ID/g and the tissue uptake at 1 h (both sexes, tumor, MM1S xenograft mice, read-out: uptake in tumor) was 2.48 ± 0.17 %ID/g. The tissue to tissue ratio at 1 h (both sexes, tumor/blood, total radioactivity, MM1S xenograft mice with blocking dose (2 mg kg^−1 AJ206), read-out: Tumor/Blood ratio) was 1.08 ± 0.4, the tissue to tissue ratio at 1 h (both sexes, tumor/blood, total radioactivity, MM1S xenograft mice, read-out: Tumor/Blood ratio) was 2.9 ± 0.65 and the tissue to tissue ratio at 1 h (both sexes, tumor/muscle, total radioactivity, MM1S xenograft mice with blocking dose (2 mg kg^−1 AJ206), read-out: Tumor/Muscle ratio) was 8.31 ± 2.41. For the same compound, the tissue to tissue ratio at 1 h (both sexes, tumor/muscle, total radioactivity, MM1S xenograft mice, read-out: Tumor/Muscle ratio) was 21.2 ± 3.4, the tissue uptake at 5 min [10] was 4.11 ± 1.4 %ID/g and the tissue uptake at 0.5 h [10] was 1.48 ± 0.32 %ID/g. It also gave a tissue uptake at 1 h [10] of 0.2 ± 0.06 %ID/g, a tissue uptake at 1.5 h [10] of 0.32 ± 0.14 %ID/g and a tissue uptake at 2 h [10] of 0.45 ± 0.15 %ID/g.
